Results published in patent publication US20150265608A1, “Compounds for Treating Rac-GTPase Mediated Disorder” (Children's Medical Center Corporation, priority 2012, published 2015).

Experiments:
[1] = in vivo tolerability in NSG mice xenografted with MV411 cells
Experimental: In vivo tolerability of Compound 7 was evaluated in NSG mice xenografted with MV411 cells stably expressing luciferase via constitutive promoter. Compound 7 was prepared in a solution of 10% NMP, 5% CremaphorEL, 30% PEG200, and 55% D5W and administered PO at a dose of 50, 100, 250, or 500 mg/kg once each day for a period of 7 days. Five mice were utilized for each test group.
Body weight was recorded 3 times/week upon dosing. On treatment day 6, the mice were imaged via bioluminescence imaging to ensure the presence of the xenografted MV411 leukemia cells. Following the final dose, dose 7, at least 100 μL of blood was drawn via submandibular bleed for plasma collection. Eight hours following the last dose, cardiac puncture blood draw was performed for plasma collection.

[2] = tested on: normal bone marrow hematopoietic progenitor cells; assay: clonogenic assay in methylcellulose (colony formation) for toxicity; type: cell-based, mouse; details: compared to the other compounds
Experimental: Four of the lead compounds (Compounds 2, 3, 4, and 5) were screened for toxicity in normal bone marrow hematopoietic progenitor cells. Average colonies formed from normal BL-6 mouse bone marrow were counted following exposure of the four lead compounds individually at concentrations of 5 μM, 20 μM or 80 μM in methylcellulose. A clonogenic assay in methylcellulose was performed to assess colony formation. MethoCult base (StemCell Tech #03134) was mixed with the following reagents: fetal bovine serum, bovine serum albumin, IL-3, mSCF, EPO, beta-mercaptoethanol, penicillin, streptomycin, L-glutamine, and IMDM, and added to normal bone marrow cells. The cells in suspension are then plated and resulting colonies counted after 7 days.

leukemia cell lines = assay: MTS assay of inhibition of proliferation; type: cell-based
Experimental: The 100 compounds selected from the initial in silico screen were assayed for inhibition of proliferation in two leukemia cell lines, SEM and REH, by MTS ((3-(4,5-dimethylthiazol-2-yl)-5-(3-carboxymethoxyphenyl)-2-(4-sulfophenyl)-2H-tetrazolium)) assay. The cells for the MTS assay were spun down and re-suspended. The cell suspension was then divided and the compound to be tested added in desired concentrations and subsequently plated. Following an incubation period, MTS reagent (Promega CellTiter 96® Aqueous Non-Radioactive Cell Proliferation Assay) was added and allowed to incubate. The absorbance is subsequently measured at 490 nm using a plate reader.
The five lead compounds, i.e. Compounds 1-5, were further analyzed for their effect on cell proliferation at various doses on different leukemia cells. First, each the five compounds was screened in nine leukemia cell lines: REH, SEM, MV411, RS411, Jurkat, Raji, Nomo-1, Naim6, and ML2 at a concentration of 20 μM. Four of the lead compounds, Compounds 2, 3, 4 and 5 were further tested in SEM and MV411 cells at a range of concentrations for inhibition of proliferation. In order to quantitate the percentage inhibition of cell proliferation, MTS analysis was completed as described in Example 2 above.

Rac1-GTPase = target: T1, Rac1-GTPase (Homo sapiens, UniProt P63000); assay: pull down assay for RAC-GTP with Western blot; type: cell-based; details: exposure of the cells for 5 and 60 minutes, FIG. 9b
T1 construct: The assay initially required treatment of cells followed by pull down and analysis with Western blot; endogenous in cells; host or cells: Leukemia cells
Experimental: To determine which of these compounds should be further pursued, a biochemical pull down assay was performed to confirm specific inhibition of Rac activation indicated by disruption of the interaction between Rac and […]. The assay initially required treatment of cells followed by pull down and analysis with Western blot. The cells were first starved in serum free media for 2 hours. They were then re-suspended in serum-containing medium and inhibitors added at desired concentration. Following incubation for the desired length of time, the cells were pelleted and lysed with Magnesium Lysis Buffer (Millipore Mg^2+lysis/wash buffer). The Rac protein and any bound proteins were then collected with Pak Beads (Millipore Rac/cdc42 Assay Reagent (PAK-1 PBD, agarose). Bound protein was subsequently removed with lysis buffer and subject to Western Blot analysis.
Additional analysis of Compound 5 was performed to assess its effects on apoptosis, cell death and RAC-GTPase interaction. FIG. 9a indicates the effect of OSSK—373747 on the apoptotic pathway in SEM cells. Apoptotic cells and dead cells following incubation of SEM cells with 20 and 80 μM of Compound 5 were analyzed using Annexin V staining.

Q: With Cc1nn(Cc2ccc(F)cc2)c2sc(C(=O)Nc3ccc4c(c3)OCO4)cc12 [Compound 7] as the compound, how does the in vivo tolerability ([1]; PO 50, 100, 250 or 500 mg/kg once each day for 7 days) read?
A: tolerable

Q: What about the “change in weight of animals” value ([1]; PO 50, 100, 250 or 500 mg/kg over a 7 day period, FIG. 19b) of the same compound?
A: no progressive weight loss

Q: For O=C(CSc1nc2ccccc2n1Cc1ccccc1)N/N=C/c1ccccc1O [Compound 5], which “toxicity to the normal cells (average colonies from normal mouse bone marrow)” value ([2]; 20 μM or 80 μM, FIG. 8) is on record?
A: least toxicity

Q: What about the “toxicity to normal bone marrow cells” value ([2]; summary statement) of the same compound?
A: low toxicity

Q: And the “efficacy (inhibition of leukemia cell proliferation)” value (leukemia cell lines; summary of prior experiments, compared to the other compounds)?
A: strong efficacy

Q: What about the “GTPase and Rac interaction” value (Rac1-GTPase) of the same compound?
A: decrease in GTPase and Rac interaction

Q: Which “inhibitory activity on leukemia cell lines” value (leukemia cell lines; in vitro) does the source give for NNC(=O)CSc1nc2ccccc2n1Cc1ccccc1 [Compound 12] here?
A: retains inhibitory activity
